Experimental data reported in patent US9079866B2, “Flap modulators” (JANSSEN PHARMACEUTICA NV, priority 2013, dated 2015).
Structures can show the parent of a compound that is named as a salt. Where two headings read alike, the source gives them in different places.

Experiments:
[1] = system: leukotriene pathway in human whole blood (LTB4 levels); experiment: Human whole blood assay (A23187-stimulated LTB4); type: cell-based; settings: Homo sapiens, human whole blood diluted 1:1, A23187-stimulated; read-out: LTB4 IC50 1:1
Procedure, shortened: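 Compounds are pre-incubated 15 min at 37° Celsius in RPMI-diluted (1:1) heparinised whole blood before a 30 min A23187 stimulus (7 μg/mL). Plasma LTB4 is read by immunoassay kit, with IC50 calculated from a 4-parameter equation.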

human FLAP = human FLAP (Homo sapiens (Human), UniProt P20292); experiment: FLAP binding assay (HTRF format)
Procedure, shortened: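 HTRF ratio read-out; two independent plates, samples in duplicate on each, values averaged across plates.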

Chain of human FLAP (P20292 whole entry): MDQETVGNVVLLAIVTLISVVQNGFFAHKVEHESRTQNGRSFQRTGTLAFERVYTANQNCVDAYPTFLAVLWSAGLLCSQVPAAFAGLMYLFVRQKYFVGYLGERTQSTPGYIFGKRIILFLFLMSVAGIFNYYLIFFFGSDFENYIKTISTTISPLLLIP

IC50 [1]	Ki (human FLAP; wild type FLAP, HTRF format)	Compound	Ki (human FLAP; read-out: FLAP Binding wild type HTRF Ki)
127 nM	32.7 nM	C[C@H](O)CNS(=O)(=O)c1ccccc1-c1ccc(-c2ncc(N)nc2C#N)c(F)c1 [Example 707, 4′-(5-Amino-3-cyanopyrazin-2-yl)-3′-fluoro-N-[(2S)-2-hydroxypropyl]biphenyl-2-sulfonamide]	
142 nM	23.5 nM	C[C@@H](O)CNS(=O)(=O)c1ccccc1-c1ccc(-c2ncc(N)nc2C#N)c(F)c1 [Example 708, 4′-(5-Amino-3-cyanopyrazin-2-yl)-3′-fluoro-N-[(2R)-2-hydroxypropyl]biphenyl-2-sulfonamide]	
268 nM	5.4 nM	NC(=O)C1CCN(S(=O)(=O)c2ccccc2-c2ccc(-c3cnc(N)nc3)c(F)c2)CC1 [Example 709, 1-((4′-(2-Aminopyrimidin-5-yl)-3′-fluoro-[1,1′-biphenyl]-2-yl)sulfonyl)piperidine-4-carboxamide]	
56.5 nM	13.7 nM	C[C@H](CO)NS(=O)(=O)c1ccccc1-c1ccc(-c2ncc(N)nc2C#N)c(F)c1 [Example 710, 4′-(5-Amino-3-cyanopyrazin-2-yl)-3′-fluoro-N-[(1R)-2-hydroxy-1-methylethyl]biphenyl-2-sulfonamide]	
142 nM	41.7 nM	C[C@@H](CO)NS(=O)(=O)c1ccccc1-c1ccc(-c2ncc(N)nc2C#N)c(F)c1 [Example 711, 4′-(5-Amino-3-cyanopyrazin-2-yl)-3′-fluoro-N-[(1S)-2-hydroxy-1-methylethyl]biphenyl-2-sulfonamide]	
52.3 nM	1.9 nM	N#Cc1nc(N)cnc1-c1ccc(-c2ccc(C(F)(F)F)cc2S(=O)(=O)NCCO)cc1F [Example 712, 4′-(5-Amino-3-cyanopyrazin-2-yl)-3′-fluoro-N-(2-hydroxyethyl)-4-(trifluoromethyl)biphenyl-2-sulfonamide]	
53.4 nM	1.7 nM	CCNS(=O)(=O)c1cc(C(F)(F)F)ccc1-c1ccc(-c2ncc(N)nc2C#N)c(F)c1 [Example 713, 4′-(5-Amino-3-cyanopyrazin-2-yl)-N-ethyl-3′-fluoro-4-(trifluoromethyl)-[1,1′-biphenyl]-2-sulfonamide]	
33.1 nM	2.4 nM	CC(C)(CO)CNS(=O)(=O)c1ccccc1-c1ccc(-c2ncc(N)nc2C#N)c(F)c1 [Example 714, 4′-(5-Amino-3-cyanopyrazin-2-yl)-3′-fluoro-N-(3-hydroxy-2,2-dimethylpropyl)biphenyl-2-sulfonamide]	
1170 nM	484 nM	Nc1cnc(-c2ccc(-c3ccccc3S(=O)(=O)c3nccc(N)n3)cc2F)cn1 [Example 727, 2-{[4′-(5-Aminopyrazin-2-yl)-3′-fluorobiphenyl-2-yl]sulfonyl}pyrimidin-4-amine]	
861 nM	64.7 nM	N#Cc1nc(N)cnc1-c1ccc(-c2ccccc2S(=O)(=O)C2CC2)cc1F [Example 729, 6-Amino-3-[2′-(cyclopropylsulfonyl)-3-fluorobiphenyl-4-yl]pyrazine-2-carbonitrile]	
136 nM	6.7 nM	N#CC1(S(=O)(=O)c2ccccc2-c2ccc(-c3cnc(N)cn3)c(F)c2)CCCC1 [Example 730, 1-{[4′-(5-Aminopyrazin-2-yl)-3′-fluorobiphenyl-2-yl]sulfonyl}cyclopentanecarbonitrile]	
51.3 nM	14.7 nM	NC(=O)C1(S(=O)(=O)c2ccccc2-c2ccc(-c3cnc(N)cn3)c(F)c2)CCCC1 [Example 731, 1-{[4′-(5-Aminopyrazin-2-yl)-3′-fluorobiphenyl-2-yl]sulfonyl}cyclopentanecarboxamide]	
272 nM	32 nM	CC(C)(C#N)S(=O)(=O)c1ccccc1-c1ccc(-c2cnc(N)cn2)c(F)c1 [Example 735, 2-{[4′-(5-Aminopyrazin-2-yl)-3′-fluorobiphenyl-2-yl]sulfonyl}-2-methylpropanenitrile]	
2950 nM	240 nM	N#CC1(S(=O)(=O)c2ccccc2-c2ccc(-c3cnc(N)nc3)c(F)c2)CCCC1 [Example 738, 1-{[4′-(2-Aminopyrimidin-5-yl)-3′-fluorobiphenyl-2-yl]sulfonyl}cyclopentanecarbonitrile]	
1110 nM	370 nM	NC(=O)C1(S(=O)(=O)c2ccccc2-c2ccc(-c3cnc(N)nc3)c(F)c2)CCCC1 [Example 739, 1-{[4′-(2-Aminopyrimidin-5-yl)-3′-fluorobiphenyl-2-yl]sulfonyl}cyclopentanecarboxamide]	
26.3 nM	4.6 nM	Nc1cnc(Sc2ccccc2-c2ccc(-c3cnc(N)cn3)c(F)c2)cn1 [Example 741, 5-{[4′-(5-Aminopyrazin-2-yl)-3′-fluorobiphenyl-2-yl]sulfanyl}pyrazin-2-amine]	
25.7 nM	2.9 nM	Nc1cnc(-c2ccc(-c3ccccc3Sc3cncc(N)n3)cc2F)cn1 [Example 742, 5-{2′-[(6-Aminopyrazin-2-yl)sulfanyl]-3-fluorobiphenyl-4-yl}pyrazin-2-amine]	
21.6 nM	1.6 nM	Nc1cnc(-c2ccc(-c3ccccc3Sc3ccncn3)cc2F)cn1 [Example 743, 5-(3-Fluoro-2′-(pyrimidin-4-ylthio)-[1,1′-biphenyl]-4-yl)pyrazin-2-amine]	
132 nM	15.5 nM	Nc1cnc(Sc2ccccc2-c2ccc(-c3cnc(N)nc3)c(F)c2)cn1 [Example 744, 5-{2′-[(5-Aminopyrazin-2-yl)sulfanyl]-3-fluorobiphenyl-4-yl}pyrimidin-2-amine]	
137 nM	2 nM	N#Cc1nc(N)cnc1-c1ccc(-c2ccc(C(F)(F)F)cc2Oc2ncccn2)cc1F [Example 746, 6-Amino-3-[3-fluoro-2′-(pyrimidin-2-yloxy)-4′-(trifluoromethyl)biphenyl-4-yl]pyrazine-2-carbonitrile]	
262 nM	27.1 nM	N#Cc1nc(N)cnc1-c1ccc(-c2ccccc2Oc2ncccn2)cc1F [Example 747, 6-Amino-3-[3-fluoro-2′-(pyrimidin-2-yloxy)biphenyl-4-yl]pyrazine-2-carbonitrile]	
1060 nM	80.9 nM	CC(C)S(=O)(=O)Cc1ccccc1-c1ccc(-c2cnc(N)cn2)c(F)c1 [Example 751, 5-(3-Fluoro-2′-{[(1-methylethyl)sulfonyl]methyl}biphenyl-4-yl)pyrazin-2-amine]	
299 nM	135 nM	Nc1cnc(-c2ccc(-c3ccccc3CS(=O)(=O)c3ncccn3)cc2F)cn1 [Example 752, 5-{3-Fluoro-2′-[(pyrimidin-2-ylsulfonyl)methyl]biphenyl-4-yl}pyrazin-2-amine]	
21.3 nM	4.4 nM	Nc1cnc(-c2ccc(-c3ccccc3CSc3nccc(N)n3)cc2F)cn1 [Example 753, 2-({[4′-(5-Aminopyrazin-2-yl)-3′-fluorobiphenyl-2-yl]methyl}sulfanyl)pyrimidin-4-amine]	
16.2 nM	5.2 nM	Nc1cnc(-c2ccc(-c3ccc(C(F)(F)F)cc3C(=O)N3CCS(=O)(=O)CC3)cc2F)cn1 [Example 757, 5-{2′-[(1,1-Dioxidothiomorpholin-4-yl)carbonyl]-3-fluoro-4′-(trifluoromethyl)biphenyl-4-yl}pyrazin-2-amine]	

Compound	IC50 [1]	Ki (human FLAP; wild type FLAP, HTRF format)	Ki (human FLAP; read-out: FLAP Binding wild type HTRF Ki)
CCS(=O)(=O)Cc1ccccc1-c1ccc(-c2cnc(N)cn2)c(F)c1 [Example 749, 5-{2′-[(Ethylsulfonyl)methyl]-3-fluorobiphenyl-4-yl}pyrazin-2-amine hydrogen chloride salt]	468 nM		246 nM
